Data: patent publication US5495032A, “Process for producing 7-(substituted)-8-(substituted-9-[(substituted glycyl)amido]-6-demethyl-6-deoxytetracyclines” (priority 1994, dated 1996)
In brackets after ≈: the same amount, converted by molar mass. Where two headings read alike, the source gives them in different places.

What was measured:
Format in all cases: cell-based
[1] = test system: S. hemolyticus AVHAH 88-3; experiment: MIC, agar dilution method; conditions: Streptococcus pyogenes, AVHAH883, 18 h, 18 hours at 35° C.
E. coli UBMS 90-4 Tet M = experiment: microbe, parasite or virus in culture; conditions: Escherichia coli, UBMS904TETM, 18 h, 18 hours at 35° C.
[2] = test system: S. aureus UBMS 90-1 Tet M; experiment: microbe, parasite or virus in culture; conditions: Staphylococcus aureus, UBMS901TETM, 18 h, 18 hours at 35° C.
[3] = test system: S. aureus UBMS 88-7 Tet K; experiment: microbe, parasite or virus in culture; conditions: Staphylococcus aureus, UBMS887TETK, 18 h, 18 hours at 35° C.
[4] = test system: X. maltophilia NEMC 87210; experiment: MIC, agar dilution method; conditions: Stenotrophomonas maltophilia, NEMC87210, 18 h, 18 hours at 35° C.
[5] = test system: S. aureus UBMS 88-5 Tet M; experiment: microbe, parasite or virus in culture; conditions: Staphylococcus aureus, UBMS885TETM, 18 h
S. aureus ROSE (MP) = experiment: MIC, agar dilution method; conditions: Staphylococcus aureus, 18 hours at 35° C.
E. coli UBMS 89-1 Tet M = experiment: microbe, parasite or virus in culture; conditions: Escherichia coli, UBMS891TETM, 18 h, 18 hours at 35° C.
E. coli PRP1 Tet A = experiment: microbe, parasite or virus in culture; conditions: Escherichia coli, PRP1TETA, 18 h, 18 hours at 35° C.
[6] = test system: E. coli MC 4100 TNIOC Tet B; experiment: microbe, parasite or virus in culture; conditions: Escherichia coli, 18 h, 18 hours at 35° C.
S. aureus IVES 1 983 = experiment: MIC, agar dilution method; conditions: Staphylococcus aureus, IVES1983, 18 h
[7] = test system: S. aureus UBMS 90-2 Tet M; experiment: microbe, parasite or virus in culture; conditions: Staphylococcus aureus, UBMS902TETM, 18 h, 18 hours at 35° C.
E. coli J2175 = experiment: MIC, agar dilution method; conditions: Escherichia coli, 18 hours at 35° C., read-out: MIC
E. faecalis ATCC 29212 = experiment: MIC, agar dilution method; conditions: Enterococcus faecalis, ATCC29212, 18 h, 18 hours at 35° C.
[8] = test system: Ps. acruginosa ATCC 27853; experiment: MIC, agar dilution method; conditions: 18 h
E. coli UBMS 88-1 Tet B = experiment: microbe, parasite or virus in culture; conditions: Escherichia coli, UBMS881TETB, 18 h, 18 hours at 35° C.
S. mariescens FPOR 8733 = experiment: MIC, agar dilution method; conditions: 18 h, 18 hours at 35° C.
Enterococcus 12201 = experiment: MIC, agar dilution method; conditions: Enterococcus, 12201, 18 h, 18 hours at 35° C.
E. coli J3272 Tet D = experiment: microbe, parasite or virus in culture; conditions: Escherichia coli, J3272TETD, 18 h
E. coli J3272 Tet C = experiment: microbe, parasite or virus in culture; conditions: Escherichia coli, J3272TETC, 18 h
S. aureus IVES 2943 = experiment: MIC, agar dilution method; conditions: Staphylococcus aureus, IVES2943, 18 h
[9] = test system: E. coli UBMS 89-2 Tet sens; experiment: MIC, agar dilution method; conditions: Escherichia coli, UBMS892TETSENS, 18 h, 18 hours at 35° C., read-out: MIC

## CN(C)c1ccc(O)c2c1C[C@H]1C[C@H]3[C@H](N(C)C)C(O)=C(C(N)=O)C(=O)[C@@]3(O)C(O)=C1C2=O [L, Minocycline, reference compound]
[1]
  MIC: 0.25 µg/mL (≈ 0.546 µM)
E. coli UBMS 90-4 Tet M
  MIC: > 32 µg/mL
[2]
  MIC: 8 µg/mL (≈ 17.5 µM)
[3]
  MIC: 0.25 µg/mL (≈ 0.546 µM)
[4]
  MIC: 0.25 µg/mL (≈ 0.546 µM)
[5]
  MIC: 8 µg/mL (≈ 17.5 µM)
S. aureus ROSE (MP); read-out: MIC
  MIC: 1 µg/mL (≈ 2.19 µM)

## CN(C)[C@@H]1C(O)=C(C(N)=O)C(=O)[C@@]2(O)C(O)=C3C(=O)c4c(O)cccc4[C@@](C)(O)[C@H]3C[C@@H]12 [M, Tetracycline]
[1]
  MIC: 1 µg/mL (≈ 2.25 µM)
E. coli UBMS 90-4 Tet M
  MIC: 32 µg/mL (≈ 72 µM)
E. coli UBMS 89-1 Tet M
  MIC: 32 µg/mL (≈ 72 µM)
[2]
  MIC: > 32 µg/mL
E. coli PRP1 Tet A
  MIC: 32 µg/mL (≈ 72 µM)
[3]
  MIC: > 32 µg/mL
[4]
  MIC: 8 µg/mL (≈ 18 µM)
[6]
  MIC: > 32 µg/mL
S. aureus IVES 1 983
  MIC: > 32 µg/mL
[7]
  MIC: 32 µg/mL (≈ 72 µM)
E. coli J2175
  MIC: 2 µg/mL (≈ 4.5 µM)
E. faecalis ATCC 29212
  MIC: 16 µg/mL (≈ 36 µM)
[8]
  MIC: 16 µg/mL (≈ 36 µM)
[5]; S. aureus UBMS 88-5 Tet M, 18 hours at 35° C.
  MIC: > 32 µg/mL
E. coli UBMS 88-1 Tet B
  MIC: > 32 µg/mL
S. mariescens FPOR 8733
  MIC: > 32 µg/mL
Enterococcus 12201
  MIC: > 32 µg/mL
S. aureus ROSE (MP); 18 h
  MIC: > 32 µg/mL
E. coli J3272 Tet D
  MIC: > 32 µg/mL
E. coli J3272 Tet C
  MIC: > 32 µg/mL
S. aureus IVES 2943
  MIC: > 32 µg/mL
[9]
  MIC: 2 µg/mL (≈ 4.5 µM)
